Source: patent US20200407398A1, “Short Proline-Rich Lipopeptide Potentiates Minocycline and Rifampicin Against Multidrug-and Extensively Drug-Resistant Pseudomonas Aeruginosa” (priority 2018, published 2020)
Peptide text beside a SMILES is read from it. * marks the point of attachment. Lauroyl = CCCCCCCCCCCC(=O)*

What was measured:
[1] = system: P. aeruginosa 100036 (MDR/XDR); experiment: microbe, parasite or virus in culture; conditions: P. aeruginosa 100036
Description: (§1) We evaluated the activity of SPRLPs in combination with fifteen clinically-used antibiotics against P. aeruginosa. Antibiotics tested included fluoroquinolones (moxifloxacin, ciprofloxacin and levofloxacin), aminoglycosides (gentamicin, tobramycin and amikacin), cephalosporins (ceftazidime and cefotaxime), carbapenems (meropenem and doripenem), aztreonam, rifampicin, minocycline, colistin and fosfomycin. The SPRLPs were screened initially at a fixed concentration of 8 μg/mL (5 μM) in combination with antibiotics against wild-type P. aeruginosa PAO1. We assessed potentiation by at least a four-fold absolute MIC reduction of the antibiotic, after which synergism was further validated by a conventional checkerboard assay. A fractional inhibitory concentration (FIC) index of ≤0.5, 0.5<x≤4 or >4 was interpreted as synergistic, indifferent or antagonistic interaction, respectively (31). FIC index was obtained by adding the FIC values of the antibiotic and the SPRLP adjuvant. FIC of antibiotics was calculated by dividing the MIC of the antibiotic in the presence of the adjuvant by the MIC of the antibiotic alone. Similarly, the FIC of adjuvant was calculated via dividing the MIC of the adjuvant in the presence of the antibiotic by the MIC of the adjuvant alone.
(§2) Isolates used in this study were either obtained from the American Type Culture Collection (ATCC), the Canadian National Intensive Care Unit (CAN-ICU) surveillance study (27) or the Canadian Ward Surveillance (CANWARD) study (28). Clinical isolates belonging to the CAN-ICU and CANWARD studies were recovered from patients suffering a presumed infectious disease entering or admitted in a participating medical center across Canada during the time of study. MDR P. aeruginosa strains in this study refer to those that are resistant to aminoglycosides, fluoroquinolones, cephalosporins, and carbapenems while XDR strains are those that are resistant to aminoglycosides, fluoroquinolones, cephalosporins, carbapenems, aztreonam and penicillin+β-lactamase inhibitor combination (39, 40).
(§3) Microbroth dilution susceptibility test following the Clinical and Laboratory Standards Institute (CLSI) guidelines (32) was performed to assess the in vitro antibacterial activity of SPRLPs. Overnight grown bacterial cultures were diluted in saline to achieve a 0.5 McFarland turbidity, followed by 1:50 dilution in Mueller-Hinton broth (MHB) for inoculation to a final concentration of 5×10^5 colony forming units/mL. The assay was done on a 96-well plate to which the agents of interest were 2-fold serially diluted in MHB and incubated with equal volumes of inoculum at 37° C. for 18 hours. MIC was determined as the lowest concentration to inhibit visible bacterial growth in form of turbidity, which was confirmed using EMax Plus microplate reader (Molecular Devices, USA) at a wavelength of 590 nm. The well containing MHB broth with or without bacterial cells was used as positive or negative control, respectively.
(§4) The assay was performed on a 96-well plate, to which the agents of interest was 2-fold serially diluted in working MHB. Prior to serial dilution, SPRLP was added to the working MHB media so that a fixed final concentration of 8 μg/mL (5 μM) SPRLP per well was achieved. To ensure that the assay was working, the MIC determination test of the studied antibiotic (without SPRLP) was included on the same plate. Similar MIC results between the assay comparator and an independent MIC determination test (on a different plate) ensured validity of the synergy test. Overnight grown bacterial cultures were diluted in saline to 0.5 McFarland turbidity, followed by 1:50 dilution in MHB (without SPRLP) and inoculation into each well to a final concentration of approximately 5×10^5 colony forming units/mL. Wells containing only MHB (without SPRLP) with or without bacterial cells were used as positive or negative control, respectively.

[2] = system: P. aeruginosa 101243 (colistin-resistant, MDR/XDR); experiment: microbe, parasite or virus in culture; conditions: for Potentiation / FIC index: P. aeruginosa 101243 (colistin-resistant)
Description: as §1, §2, §3, §4

[3] = system: P. aeruginosa 101885 (MDR/XDR); experiment: microbe, parasite or virus in culture; conditions: for Potentiation / FIC index: P. aeruginosa 101885
Description: as §1, §2, §3, §4

[4] = system: P. aeruginosa 259-96918 (MDR/XDR); experiment: microbe, parasite or virus in culture; conditions: P. aeruginosa 259-96918
Description: as §1, §2, §3, §4

[5] = system: P. aeruginosa 260-97103 (MDR/XDR); experiment: microbe, parasite or virus in culture; conditions: for Potentiation / FIC index: P. aeruginosa 260-97103
Description: as §1, §2, §3, §4

[6] = system: P. aeruginosa 262-101856 (MDR/XDR); experiment: microbe, parasite or virus in culture; conditions: P. aeruginosa 262-101856
Description: as §1, §2, §3, §4

[7] = system: P. aeruginosa 264-104354 (MDR/XDR); experiment: microbe, parasite or virus in culture; conditions: P. aeruginosa 264-104354
Description: as §1, §2, §3, §4

[8] = system: P. aeruginosa 91433 (colistin-resistant, MDR/XDR); experiment: microbe, parasite or virus in culture; conditions: P. aeruginosa 91433 (colistin-resistant)
Description: as §1, §2, §3, §4

[9] = system: wild-type and MDR/XDR P. aeruginosa clinical isolates
Description: as §1, §2, §3, §4

[10] = antibiotic or lipopeptide alone
[11] = degree of minocycline potentiation in the presence of 8 μg/mL (5 μM) lipopeptide
[12] = degree of rifampicin potentiation in the presence of 8 μg/mL (5 μM) lipopeptide
[13] = lipopeptide in combination with minocycline (MIN)
[14] = lipopeptide in combination with rifampicin (RMP)
[15] = checkerboard assay, P. aeruginosa

CCCCCCCCCCCC(=O)N1CCC[C@H]1C(=O)N[C@@H](CCCNC(=N)N)C(=O)N1CCC[C@H]1C(=O)N[C@@H](CCCNC(=N)N)C(=O)N1CCC[C@H]1C(=O)N[C@@H](CCCNC(=N)N)C(=O)N1CCC[C@H]1C(N)=O [Compound C12-PRP, CH3(CH2)10CO-PRPRPRP-NH2] (Lauroyl-PRPRPRP-NH2)
MIC (agent alone) [1, 10]: >128 µg/mL | Potentiation [1, 11]: 4-fold | Potentiation [1, 12]: 16-fold | MIC (agent alone) ([2]; 101243 (colistin-resistant, MDR/XDR)): 128 µg/mL | Potentiation [2, 11]: 4-fold | Potentiation [2, 12]: 32-fold | FIC index [2, 13]: 0.31 | FIC index [2, 14]: 0.09 | MIC (agent alone) ([3]; 101885 (MDR/XDR)): 64 µg/mL | Potentiation [3, 11]: 4-fold | Potentiation [3, 12]: 8-fold | FIC index [3, 13]: 0.37 | FIC index [3, 14]: 0.25 | MIC (agent alone) [4, 10]: >128 µg/mL | Potentiation [4, 11]: 8-fold | Potentiation [4, 12]: 8-fold | MIC (agent alone) ([5]; 260-97103 (MDR/XDR)): 128 µg/mL | Potentiation [5, 11]: 16-fold | Potentiation [5, 12]: 8-fold | FIC index [5, 13]: 0.12 | FIC index [5, 14]: 0.16 | Absolute MIC MIN ([6]; MIC of minocycline in the presence of 8 μg/mL (5 μM) lipopeptide): 16 µg/mL | MIC (agent alone) [6, 10]: >128 µg/mL | Potentiation [6, 11]: 4-fold | Potentiation [6, 12]: none | MIC (agent alone) [7, 10]: >128 µg/mL | Potentiation [7, 11]: 16-fold | Potentiation [7, 12]: 16-fold | MIC (agent alone) [8, 10]: >128 µg/mL | Potentiation [8, 11]: 4-fold | Potentiation [8, 12]: 16-fold | strains in which MIC of rifampicin reached susceptibility breakpoint ([9]; 8 μg/mL (5 μM) lipopeptide, breakpoint ≤1 μg/mL (CLSI, Staphylococcus spp.)): five out of nine | strains in which MIC of minocycline was reduced below susceptibility breakpoint ([9]; 8 μg/mL (5 μM) lipopeptide, breakpoint ≤4 μg/mL (CLSI, Acinetobacter spp.)): seven out of nine | interaction with minocycline (in words) [9, 15]: strongly synergistic | interaction with rifampicin (in words) [9, 15]: significant potentiation | MIC (lipopeptide alone) ([9]; wild-type and clinical isolates of P. aeruginosa): inactive
